Experiments:
Assay in all cases: Kinase panel radiometric filter binding (33P-ATP)
Format in all cases: biochemical
Parameters in all cases: dose or concentration left out as unconfirmed
CK1δ = CK1δ (Homo sapiens, UniProt P48730)
Procedure: (§1) Table S4: AMPKA kinase activity data (ADP-Glo assay)
(§2) Compound pIC50 (Fold selectivity
(§3) Table S5. Kinase selectivity screening for 9 and 24 at 1 µM against a general kinase panel of 140 targets
(§4) in radiometric filter binding assay using 33P-γ−ATP at the MRC PPU International Centre for Kinase
(§5) Profiling, University of Dundee. pIC50 values were determined for compounds with <20% activity
(§6) Kinase activity s.d. pIC50 activity s.d. pIC50

IRR = IRR (Homo sapiens, UniProt P14616)
Procedure: as §1, §2, §3, §4, §5, §6

PAK2 = PAK2 (Homo sapiens, UniProt Q13177)
Procedure: as §1, §2, §3, §4, §5, §6

Src = Src (Homo sapiens, UniProt P12931)
Sequence of Src (P12931 whole entry): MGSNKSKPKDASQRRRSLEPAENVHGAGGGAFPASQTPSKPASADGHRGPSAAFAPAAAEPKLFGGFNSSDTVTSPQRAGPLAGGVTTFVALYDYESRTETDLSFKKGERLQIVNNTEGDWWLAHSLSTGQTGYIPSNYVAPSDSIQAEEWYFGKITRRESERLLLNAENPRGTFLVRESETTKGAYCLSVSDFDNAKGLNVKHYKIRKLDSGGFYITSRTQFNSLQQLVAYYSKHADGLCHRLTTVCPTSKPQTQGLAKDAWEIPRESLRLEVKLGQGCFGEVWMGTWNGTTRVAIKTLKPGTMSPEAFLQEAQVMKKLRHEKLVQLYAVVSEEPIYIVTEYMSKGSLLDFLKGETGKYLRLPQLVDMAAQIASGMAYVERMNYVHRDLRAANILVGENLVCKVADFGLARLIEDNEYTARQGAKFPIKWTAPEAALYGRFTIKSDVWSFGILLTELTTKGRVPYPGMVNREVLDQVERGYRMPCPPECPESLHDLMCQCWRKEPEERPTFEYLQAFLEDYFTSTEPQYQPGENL
Procedure: as §1, §2, §3, §4, §5, §6

CLK2 = CLK2 (Homo sapiens, UniProt P49760)
Procedure: as §1, §2, §3, §4, §5, §6

BRSK2 = BRSK2 (Homo sapiens, UniProt Q8IWQ3)
Sequence of BRSK2 (Q8IWQ3 whole entry): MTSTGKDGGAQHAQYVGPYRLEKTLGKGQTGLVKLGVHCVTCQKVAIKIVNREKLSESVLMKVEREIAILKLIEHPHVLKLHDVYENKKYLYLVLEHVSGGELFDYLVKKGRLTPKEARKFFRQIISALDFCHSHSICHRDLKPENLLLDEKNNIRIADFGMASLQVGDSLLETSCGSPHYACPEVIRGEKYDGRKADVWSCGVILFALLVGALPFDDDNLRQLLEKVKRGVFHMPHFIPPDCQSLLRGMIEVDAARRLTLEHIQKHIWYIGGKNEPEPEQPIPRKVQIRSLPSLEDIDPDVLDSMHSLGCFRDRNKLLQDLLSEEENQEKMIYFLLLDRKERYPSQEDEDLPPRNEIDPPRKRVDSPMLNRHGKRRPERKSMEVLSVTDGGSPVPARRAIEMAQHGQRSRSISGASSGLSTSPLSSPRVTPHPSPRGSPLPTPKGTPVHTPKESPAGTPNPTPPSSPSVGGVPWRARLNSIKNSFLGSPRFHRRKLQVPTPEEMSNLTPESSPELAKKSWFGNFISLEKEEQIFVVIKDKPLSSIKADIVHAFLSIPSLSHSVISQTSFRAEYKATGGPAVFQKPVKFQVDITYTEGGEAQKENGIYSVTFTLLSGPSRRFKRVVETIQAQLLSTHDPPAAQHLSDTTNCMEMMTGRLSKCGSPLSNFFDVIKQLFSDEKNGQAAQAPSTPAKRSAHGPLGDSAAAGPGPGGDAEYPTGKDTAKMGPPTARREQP
Procedure: as §1, §2, §3, §4, §5, §6

PHK = system: PHK
Procedure: as §1, §2, §3, §4, §5, §6

MAP4K3 = MAP4K3 (Homo sapiens, UniProt Q8IVH8)
Sequence of MAP4K3 (Q8IVH8 whole entry): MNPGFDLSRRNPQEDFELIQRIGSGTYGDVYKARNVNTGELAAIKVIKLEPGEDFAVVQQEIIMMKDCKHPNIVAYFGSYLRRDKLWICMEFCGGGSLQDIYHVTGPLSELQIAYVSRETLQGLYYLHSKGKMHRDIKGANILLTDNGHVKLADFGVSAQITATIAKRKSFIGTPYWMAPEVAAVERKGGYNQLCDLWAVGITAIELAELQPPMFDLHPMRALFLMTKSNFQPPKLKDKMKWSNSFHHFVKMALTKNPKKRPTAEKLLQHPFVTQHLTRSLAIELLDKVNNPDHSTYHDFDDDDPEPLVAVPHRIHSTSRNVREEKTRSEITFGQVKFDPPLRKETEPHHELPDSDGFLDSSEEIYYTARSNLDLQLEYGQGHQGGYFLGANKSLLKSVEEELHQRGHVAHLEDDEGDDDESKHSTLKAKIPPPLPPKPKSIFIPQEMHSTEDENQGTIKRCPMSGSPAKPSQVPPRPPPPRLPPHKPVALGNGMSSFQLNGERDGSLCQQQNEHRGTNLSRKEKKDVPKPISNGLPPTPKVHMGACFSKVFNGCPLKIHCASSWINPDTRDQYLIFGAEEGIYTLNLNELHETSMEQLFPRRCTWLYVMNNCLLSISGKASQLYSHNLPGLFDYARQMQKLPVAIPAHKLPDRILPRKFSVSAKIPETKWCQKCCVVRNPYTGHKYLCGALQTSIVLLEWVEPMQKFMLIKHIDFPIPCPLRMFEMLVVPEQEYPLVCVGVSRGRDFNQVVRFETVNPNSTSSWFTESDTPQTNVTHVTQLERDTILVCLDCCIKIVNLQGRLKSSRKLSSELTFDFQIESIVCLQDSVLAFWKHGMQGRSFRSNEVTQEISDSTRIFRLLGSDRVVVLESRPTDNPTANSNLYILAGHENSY
Procedure: as §1, §2, §3, §4, §5, §6

PRK2 = PRK2 (Homo sapiens, UniProt Q16513)
Procedure: as §1, §2, §3, §4, §5, §6

PAK4 = PAK4 (Homo sapiens, UniProt O96013)
Procedure: as §1, §2, §3, §4, §5, §6

MPSK1 = MPSK1 (Homo sapiens, UniProt O75716)
Sequence of MPSK1 (O75716 whole entry): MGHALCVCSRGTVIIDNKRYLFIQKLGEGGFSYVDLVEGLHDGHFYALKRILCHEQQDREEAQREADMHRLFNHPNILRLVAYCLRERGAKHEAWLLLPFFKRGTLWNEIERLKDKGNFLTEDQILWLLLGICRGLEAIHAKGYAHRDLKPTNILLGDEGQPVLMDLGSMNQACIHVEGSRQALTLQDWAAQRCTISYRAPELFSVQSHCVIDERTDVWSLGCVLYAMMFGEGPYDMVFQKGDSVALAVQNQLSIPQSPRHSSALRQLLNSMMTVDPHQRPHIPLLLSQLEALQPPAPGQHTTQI
Procedure: as §1, §2, §3, §4, §5, §6

TSSK1 = TSSK1 (Homo sapiens, UniProt Q9BXA7)
Procedure: as §1, §2, §3, §4, §5, §6

PIM1 = PIM1 (Homo sapiens, UniProt P11309)
Procedure: as §1, §2, §3, §4, §5, §6

Aurora B = Aurora B (Homo sapiens, UniProt Q96GD4)
Procedure: as §1, §2, §3, §4, §5, §6

DYRK2 = DYRK2 (Homo sapiens, UniProt Q92630)
Sequence of DYRK2 (Q92630 whole entry): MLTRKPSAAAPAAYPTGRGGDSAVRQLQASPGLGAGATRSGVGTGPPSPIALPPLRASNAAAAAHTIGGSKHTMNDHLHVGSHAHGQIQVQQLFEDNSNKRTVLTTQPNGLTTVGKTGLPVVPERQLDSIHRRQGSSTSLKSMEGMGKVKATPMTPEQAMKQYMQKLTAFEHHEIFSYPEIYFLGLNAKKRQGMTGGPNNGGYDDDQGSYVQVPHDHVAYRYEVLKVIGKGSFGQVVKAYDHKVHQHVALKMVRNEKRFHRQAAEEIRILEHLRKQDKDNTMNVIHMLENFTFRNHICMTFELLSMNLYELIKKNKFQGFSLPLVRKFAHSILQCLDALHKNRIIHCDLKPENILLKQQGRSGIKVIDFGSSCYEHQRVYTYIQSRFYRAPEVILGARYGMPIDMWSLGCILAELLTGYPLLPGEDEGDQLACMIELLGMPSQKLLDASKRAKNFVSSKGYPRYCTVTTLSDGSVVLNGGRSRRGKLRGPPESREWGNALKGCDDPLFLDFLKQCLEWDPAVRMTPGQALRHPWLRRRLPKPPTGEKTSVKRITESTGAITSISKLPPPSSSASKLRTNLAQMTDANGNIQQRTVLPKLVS
Procedure: as §1, §2, §3, §4, §5, §6

IKKb = IKKb (Homo sapiens, UniProt O14920)
Procedure: as §1, §2, §3, §4, §5, §6

MINK1 = MINK1 (Homo sapiens, UniProt Q8N4C8)
Procedure: as §1, §2, §3, §4, §5, §6

EF2K = EF2K (Homo sapiens, UniProt O00418)
Procedure: as §1, §2, §3, §4, §5, §6

SYK = SYK (Homo sapiens, UniProt P43405)
Procedure: as §1, §2, §3, §4, §5, §6

JNK2 = JNK2 (Homo sapiens, UniProt P45984)
Sequence of JNK2 (P45984 whole entry): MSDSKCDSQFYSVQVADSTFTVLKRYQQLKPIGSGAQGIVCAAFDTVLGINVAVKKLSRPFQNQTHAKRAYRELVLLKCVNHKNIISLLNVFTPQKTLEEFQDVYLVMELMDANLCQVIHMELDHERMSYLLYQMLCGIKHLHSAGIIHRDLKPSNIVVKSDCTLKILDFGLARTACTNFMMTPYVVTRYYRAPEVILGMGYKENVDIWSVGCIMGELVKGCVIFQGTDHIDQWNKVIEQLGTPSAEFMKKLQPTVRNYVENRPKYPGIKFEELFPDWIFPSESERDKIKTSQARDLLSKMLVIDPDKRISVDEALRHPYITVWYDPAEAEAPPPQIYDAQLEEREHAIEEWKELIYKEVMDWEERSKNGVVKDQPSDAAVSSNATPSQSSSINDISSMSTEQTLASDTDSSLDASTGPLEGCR
Procedure: as §1, §2, §3, §4, §5, §6

GCK = GCK (Homo sapiens, UniProt Q12851)
Procedure: as §1, §2, §3, §4, §5, §6

IKKe = IKKe (Homo sapiens, UniProt Q14164)
Procedure: as §1, §2, §3, §4, §5, §6

PKCz = PKCz (Homo sapiens, UniProt Q05513)
Sequence of PKCz (Q05513 whole entry): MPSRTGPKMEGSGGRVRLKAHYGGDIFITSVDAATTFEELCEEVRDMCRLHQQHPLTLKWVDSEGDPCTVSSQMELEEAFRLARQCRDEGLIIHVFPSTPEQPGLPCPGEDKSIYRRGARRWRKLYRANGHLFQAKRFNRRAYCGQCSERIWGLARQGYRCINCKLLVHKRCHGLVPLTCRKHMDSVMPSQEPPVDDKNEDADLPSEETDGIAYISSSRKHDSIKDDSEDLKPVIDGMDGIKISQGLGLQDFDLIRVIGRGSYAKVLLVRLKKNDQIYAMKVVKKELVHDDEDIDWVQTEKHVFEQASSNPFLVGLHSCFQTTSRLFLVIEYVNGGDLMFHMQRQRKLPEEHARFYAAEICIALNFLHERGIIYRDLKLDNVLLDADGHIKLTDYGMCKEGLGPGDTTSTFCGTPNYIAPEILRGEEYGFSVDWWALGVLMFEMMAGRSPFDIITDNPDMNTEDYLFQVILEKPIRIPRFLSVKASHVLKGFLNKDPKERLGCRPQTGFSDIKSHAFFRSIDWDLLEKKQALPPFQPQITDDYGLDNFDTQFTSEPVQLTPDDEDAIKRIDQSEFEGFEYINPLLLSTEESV
Procedure: as §1, §2, §3, §4, §5, §6

MKK1 = MKK1 (Homo sapiens, UniProt Q02750)
Sequence of MKK1 (Q02750 whole entry): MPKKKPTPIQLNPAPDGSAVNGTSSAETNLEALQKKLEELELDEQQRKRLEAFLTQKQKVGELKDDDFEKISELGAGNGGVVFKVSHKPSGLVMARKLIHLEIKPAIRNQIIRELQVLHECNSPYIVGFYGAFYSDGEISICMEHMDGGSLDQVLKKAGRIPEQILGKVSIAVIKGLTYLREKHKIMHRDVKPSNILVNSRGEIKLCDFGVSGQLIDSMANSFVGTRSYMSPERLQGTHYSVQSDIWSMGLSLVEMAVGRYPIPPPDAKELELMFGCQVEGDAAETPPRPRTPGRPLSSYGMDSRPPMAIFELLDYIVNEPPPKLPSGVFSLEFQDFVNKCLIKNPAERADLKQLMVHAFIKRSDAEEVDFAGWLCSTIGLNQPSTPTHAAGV
Procedure: as §1, §2, §3, §4, §5, §6

RSK1 = RSK1 (Homo sapiens, UniProt Q15418)
Procedure: as §1, §2, §3, §4, §5, §6

ERK8 = ERK8 (Homo sapiens, UniProt Q8TD08)
Sequence of ERK8 (Q8TD08 whole entry): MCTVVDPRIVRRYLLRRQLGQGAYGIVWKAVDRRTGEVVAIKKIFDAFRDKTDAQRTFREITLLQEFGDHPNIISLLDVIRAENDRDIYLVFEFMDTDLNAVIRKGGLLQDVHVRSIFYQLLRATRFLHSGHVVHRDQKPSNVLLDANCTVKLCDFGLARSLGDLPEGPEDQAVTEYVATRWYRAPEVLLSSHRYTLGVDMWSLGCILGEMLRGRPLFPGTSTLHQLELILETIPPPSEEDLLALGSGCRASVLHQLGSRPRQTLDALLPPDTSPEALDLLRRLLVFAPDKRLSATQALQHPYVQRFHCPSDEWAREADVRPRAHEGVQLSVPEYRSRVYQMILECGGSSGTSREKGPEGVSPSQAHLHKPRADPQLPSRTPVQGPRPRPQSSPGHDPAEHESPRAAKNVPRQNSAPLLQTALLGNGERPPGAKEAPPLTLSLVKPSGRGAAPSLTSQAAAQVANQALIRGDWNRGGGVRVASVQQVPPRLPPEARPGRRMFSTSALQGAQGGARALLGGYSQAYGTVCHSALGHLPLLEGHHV
Procedure: as §1, §2, §3, §4, §5, §6

ZAP70 = ZAP70 (Homo sapiens, UniProt P43403)
Procedure: as §1, §2, §3, §4, §5, §6

p38b MAPK = p38b MAPK (Homo sapiens, UniProt Q15759)
Procedure: as §1, §2, §3, §4, §5, §6

PKA = PKA (Homo sapiens, UniProt P17612)
Procedure: as §1, §2, §3, §4, §5, §6

PKD1 = PKD1 (Homo sapiens, UniProt Q15139)
Procedure: as §1, §2, §3, §4, §5, §6

MNK1 = MNK1 (Homo sapiens, UniProt Q9BUB5)
Procedure: as §1, §2, §3, §4, §5, §6

DDR2 = DDR2 (Homo sapiens, UniProt Q16832)
Procedure: as §1, §2, §3, §4, §5, §6

Aurora A = Aurora A (Homo sapiens, UniProt O14965)
Procedure: as §1, §2, §3, §4, §5, §6

EPH-B3 = EPH-B3 (Homo sapiens, UniProt P54753)
Procedure: as §1, §2, §3, §4, §5, §6

NEK6 = NEK6 (Homo sapiens, UniProt Q9HC98)
Procedure: as §1, §2, §3, §4, §5, §6

PRAK = PRAK (Homo sapiens, UniProt Q8IW41)
Procedure: as §1, §2, §3, §4, §5, §6

Structure (SMILES)	% activity remaining (CK1δ) [%]	% activity remaining (IRR) [%]	% activity remaining (PAK2) [%]	% activity remaining (Src) [%]	% activity remaining (CLK2) [%]	% activity remaining (BRSK2) [%]	% activity remaining (PHK) [%]	% activity remaining (MAP4K3) [%]	% activity remaining (PRK2) [%]	% activity remaining (PAK4) [%]	% activity remaining (MPSK1) [%]	% activity remaining (TSSK1) [%]	% activity remaining (PIM1) [%]	% activity remaining (Aurora B) [%]	% activity remaining (DYRK2) [%]	% activity remaining (IKKb) [%]	% activity remaining (MINK1) [%]	% activity remaining (EF2K) [%]	% activity remaining (SYK) [%]	% activity remaining (JNK2) [%]	other results
Cc1cc(=O)n(C2CCCC2)c2nc(Nc3ccc(N4CC5CC(C4)N5C)cc3)ncc12 [Compound 9]	66	70	97	53	23	90	56	29	75	50	114	56	90	61	103	93	30	72	49	35	% activity remaining (GCK): 76%; % activity remaining (IKKe): 84%; % activity remaining (PKCz): 110%; % activity remaining (MKK1): 108%; % activity remaining (RSK1): 41%; % activity remaining (ERK8): 47%; % activity remaining (ZAP70): 94%; % activity remaining (p38b MAPK): 91%; % activity remaining (PKA): 84%; % activity remaining (PKD1): 20%; % activity remaining (MNK1): 96%; % activity remaining (DDR2): 39%; % activity remaining (Aurora A): 52%; % activity remaining (EPH-B3): 95%; % activity remaining (NEK6): 105%; % activity remaining (PRAK): 99%
CN1C2CC1CN(c1ccc(Nc3ncc4ccn(CC5CCOCC5)c4n3)cc1)C2 [Compound 24]	93	94	107	84	90	75	92	62	71	89	76	77	84	64	103	103	79	102	81	88	% activity remaining (GCK): 89%; % activity remaining (IKKe): 93%; % activity remaining (PKCz): 118%; % activity remaining (MKK1): 71%; % activity remaining (RSK1): 74%; % activity remaining (ERK8): 76%; % activity remaining (ZAP70): 95%; % activity remaining (p38b MAPK): 108%; % activity remaining (PKA): 90%; % activity remaining (PKD1): 54%; % activity remaining (MNK1): 72%; % activity remaining (DDR2): 82%; % activity remaining (Aurora A): 54%; % activity remaining (EPH-B3): 77%; % activity remaining (NEK6): 98%; % activity remaining (PRAK): 83%

Source: article PMC11831560, “Development of the Pyrido[2,3-d]pyrimidin-7(8H)-one Scaffold toward Potent and Selective NUAK1 Inhibitors” (ACS Medicinal Chemistry Letters, 2025)
